Test results reported in PMC6956804, “Potent antibacterial activity of MSI-1 derived from the magainin 2 peptide against drug-resistant bacteria” (Theranostics, 2020).
Converted amounts (≈) assume the structure as drawn. Where two headings read alike, the source gives them in different places. Peptide text beside a SMILES is read from it.

How the values were obtained:
[1] = 20% fresh mouse serum, turbidimetry
From the text: (§4) At indicated time points, samples were denatured with equal volumes of 6 M urea and subjected to HPLC analysis or antibacterial activity evaluation.

Plasma stability = format: in vitro ADME, mouse; details: for antibacterial activities after plasma incubation: turbidimetry
From the text: as §4

E. coli = assay: ONPG assay, release of cytoplasmic β-galactosidase; format: cell-based; details: 2 h
Procedure: (§1) E. coli were mixed with different concentrations of MSI-1, incubated for 2 h, resuspended by PI solution (20 μg/ml), and ultimately subjected to flow cytometry for PI uptake assay. Calcein-loaded liposomes were prepared to imitate bacterial membrane. Serially diluted peptide was added into liposomes (1:1, v:v) after obtaining the fluorescence intensity at λex/λem=490/520 nm. Once MSI-1 addition, fluorescence intensity was detected at 0, 3, 5, 10, 15 and 20 min. Calcein release rate was calculated as previously described. To observe bacterial morphology, E. coli treated with MSI-1 (32 μg/ml) or PBS for 2 h was collected, fixed by 2.5% glutaraldehyde and subjected to scanning electron microscopy (SEM) assay (SUI510, Hitachi, Japan). In addition, E. coli were resuspended in reaction buffer (60 mM Na2HPO4^. 7H2O, 40 mM NaH2PO4^. H2O, 10 mM KCl, 1 mM MgSO4.7H2O, 0.27% 2-Mercaptoethanol), incubated with ONPG (2.5 mg/ml) and MSI-1 for 2 h. Bacteria envelope integrity was calculated by the percentage of O-nitrophenol production.

pepsin = pepsin (Sus scrofa, UniProt P00791); details: peptide:protease 300:1, 0.1 M NH4HCO3 pH 8.2, room temperature, HPLC; peak time shifted from 6.187 to 6.792 min (0.5 h)
Sequence of pepsin (P00791 60-385): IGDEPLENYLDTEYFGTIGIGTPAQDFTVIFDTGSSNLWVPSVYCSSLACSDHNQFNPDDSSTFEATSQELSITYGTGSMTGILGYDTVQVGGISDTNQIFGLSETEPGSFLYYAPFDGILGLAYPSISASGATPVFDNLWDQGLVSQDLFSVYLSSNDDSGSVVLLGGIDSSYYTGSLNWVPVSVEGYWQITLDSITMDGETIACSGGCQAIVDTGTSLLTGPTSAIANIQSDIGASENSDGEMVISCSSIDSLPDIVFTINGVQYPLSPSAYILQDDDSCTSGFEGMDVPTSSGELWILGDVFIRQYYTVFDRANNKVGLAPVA
From the text: (§5) Aliquots of the mixture were extracted periodically and diluted with water/acetonitrile (3:2, v:v) containing 2% TFA for HPLC detection or for antibacterial activity assay [18].

G- and G+ bacteria = assay: Antimicrobial activity, summary over the strains; format: cell-based; details: MIC expressed in μM, compared with IC50 on eukaryotic cells
Procedure: (§2) A standard micro-broth serial dilution assay was used to measure MIC of peptides. MIC was obtained by a microplate reader at 600 nm. MBC was determined as previously described.

Helicobacterpylori SS1 = format: cell-based; details: 4 h
Procedure: Bacterial strains were purchased from the American Type Culture Collection (ATCC). All clinical strains were isolated from human clinical specimens by the Medical Laboratory Center of Zhongda Hospital (Nanjing, Jiangsu, China). Ndm-1, tem-1, ctx-m-1, shv-1 -carrying bacteria were constructed as previously described. The recombinant bacteria carrying drug-resistant genes were prepared in LB nutrient and induced by IPTG (1 mM) for 4 h before text. Other bacterial strains were respectively prepared in MHB and Columbia Blood Agar Base.
as §2

[2] = tested on: E. coli (penicillin resistant, levofloxacin sensitive); assay: Resistance study, serial passages; format: cell-based; details: serial passages at 1/4× MIC; ratio of MIC to that of first-time exposure
Procedure: (§3) P. aeruginosa and E. coli, which were penicillin resistant but levofloxacin sensitive strains, were exposed to MSI-1, polymyxin and levofloxacin for MIC determination. Resistance study was performed as described previously.

[3] = tested on: P. aeruginosa (penicillin resistant, levofloxacin sensitive); assay: Resistance study, serial passages; format: cell-based; details: serial passages at 1/4× MIC; ratio of MIC to that of first-time exposure
Procedure: as §3

[4] = tested on: penicillin resistant-E. coli isolates; assay: Acute systemic E. coli infection in mice; format: in vivo, BALB/c mice; details: for survival rate enhanced compared with the model group: doses 10, 5 and 2.5 mg/kg
Procedure: BALB/c mice (5-6 weeks) were purchased from the Laboratory Animal Center of Yangzhou University (Yangzhou, Jiangsu, China) and intraperitoneally (ip) injected with 500 μl (5× 10^8 CFU/ml) of penicillin resistant-E. coli isolates. Mice in MSI-1 treated groups (10, 5 and 2.5 mg/kg, n=16/group) and polymyxin treated group (5 mg/kg) were administered after 2 h post bacterial inoculation. After 12 h, six mice in each group were anesthetized with pentobarbital sodium (50 mg/kg body weight, i.p) and euthanized by cervical dislocation to count bacterial colonies in blood, lung, spleen, kidney and liver. Lung homogenates were collected for Gram staining. Moreover, serum TNF-α and IL-6 were measured by ELISA kits. The procedure of H&E staining for mouse lung was adapted from a published report. The survival and weight of other mice were monitored daily up to 7 days.

[5] = tested on: penicillin-resistant E. coli; assay: Bacteria growth curve and viability at sub-MICs; format: cell-based
Procedure: E. coli were mixed with sub-MICs MSI-1 and OD600 value was recorded every 2 h throughout 26 h of coincubation. In addition, bacteria were suspended with nutrient broth containing MSI-1 and subjected to routine MTT assay after 24 h incubation.

E. coli genomic DNA = assay: Gel retardation assay, DNA binding; details: 15 min, 1% agarose gel
Procedure: Bacterial genomic DNA was obtained by a BacteriaGen DNA Kit and quantified by a Thermo Scientific NanoDrop™ 2000c Spectrophotometer. Bacterial genomic DNA samples were incubated with isovolumetric MSI-1 at room temperature for 15 min. The gel retardation assay for DNA shift was performed by 1% w/v agarose gel (pre-stained by SYBR Green I) electrophoresis. In UV spectroscopic study, different concentrations of peptide were titrated into genomic DNA (0.5 μg/ml). After 15 min to equilibrate, the UV spectra for DNA and MSI-1-DNA complex were recorded at wavelength range of 230-350 nm. In addition, DNA dissolved in Tris-HCl (pH 7.4, CDNA=0.1 mg/ml) was mixed with EB solution (5 μM). After 10 min incubation in the dark, the EB-DNA mixture was added with different concentrations of MSI-1. Thirty minutes later, the fluorescence spectra were recorded at excitation wavelength 535 nm to measure the competitive binding of MSI-1 and EB with bacterial DNA. […] Secondary structure change of E. coli DNA was analyzed. Moreover, the intracellular changes in E. coli morphology was observed by a JEOL 1230 transmission electron microscopy (TEM) after 2 h coincubation with MSI-1.

trypsin = assay: in vitro; details: pH 8.2
From the text: as §5

[6] = Calcein release from liposomes; details: 4× MIC
Procedure: as §1

CC[C@H](C)[C@H](NC(=O)CN)C(=O)N[C@@H](Cc1c[nH]c2ccccc12)C(=O)N[C@@H](CCCCN)C(=O)N[C@@H](Cc1ccccc1)C(=O)N[C@@H](CC(C)C)C(=O)N[C@@H](CCCCN)C(=O)N[C@@H](CCCCN)C(=O)N[C@@H](C)C(=O)N[C@@H](CCCCN)C(=O)N[C@@H](CCCCN)C(=O)N[C@@H](Cc1ccccc1)C(=O)N[C@@H](Cc1c[nH]c2ccccc12)C(=O)N[C@@H](CCCCN)C(N)=O [MSI-1] (H-GIWKFLKKAKKFWK-NH2)
inhibition rate against bacteria after serum incubation ([1]; 0.5 h): 76.8% | inhibition rate against bacteria after serum incubation ([1]; 2 h): 46.9% | remaining at 0.5 h, 1.6 mg/ml (Plasma stability; 20% fresh mouse plasma, 37 °C, 0.5 h, HPLC, read-out: remaining peptide): ~77% | remaining peptide (Plasma stability; 20% fresh mouse plasma, 37 °C, 2 h, HPLC): ~67.5% | antibacterial activities after plasma incubation (Plasma stability; 20% fresh mouse plasma, 0.5 h): 97.2% | antibacterial activities after plasma incubation (Plasma stability; 20% fresh mouse plasma, 2 h): 60.7% | bacteriostatic activity (Plasma stability; either mouse plasma or serum, post 2 h coincubation (summary in the discussion)): approximately 50% | remaining at 2 h, 1.6 mg/ml (Plasma stability; fresh mouse plasma or serum (one summary value for both), either mouse plasma or serum, post 2 h coincubation (summary in the discussion), read-out: remaining peptide): 60% | activity in the supernatants (β-galactosidase release, relative to sonicated bacteria) (E. coli; 2× MIC): 36.7% | activity in the supernatants (β-galactosidase release, relative to sonicated bacteria) (E. coli; 4× MIC): 80.7% | stability in pepsin solution (pepsin): some peptide hydrolysates might be produced | effective antimicrobial concentration in vitro (G- and G+ bacteria): 4.4 to 8.8 µM | MBC (Helicobacterpylori SS1): 64 µg/mL (≈ 35.4 µM) | MIC (Helicobacterpylori SS1): 32 µg/mL (≈ 17.7 µM) | relative MIC after 15 subcultures [2]: remained stable | relative MIC after 15 subcultures [3]: remained stable | reduction in CFU (blood and organs) ([4]; 10 mg/kg, 12 h): approximately 2 log unit | decreased rates of serum IL-6 and TNF-α ([4]; 10 mg/kg, 12 h post-infection, ELISA): 70%~80% | body weight ([4]; 7 days, polymyxin 5 mg/kg): marked weight maintenance effect | survival rate enhanced compared with the model group ([4]; first of three values, given 2 h post inoculation, 7 days): 80% | survival rate enhanced compared with the model group ([4]; second of three values, 7 days): 50% | survival rate enhanced compared with the model group ([4]; third of three values, 7 days): 30% | growth pattern of bacteria ([5]; 1/4 and 1/8 MIC, OD600 over 26 h): not significantly altered | cell viability vs control ([5]; sub-MICs, MTT, within 26 h, p>0.05): no significant difference | dose at which the peptide bound to genomic DNA (E. coli genomic DNA; 1/4× MIC): 2 µg/mL | peptide concentration at which electrophoretic movement of DNA was completely inhibited (E. coli genomic DNA): higher than 4 μg/ml | remaining at 0.5 h (trypsin): < 10% | leakage of Calcein [6]: over 80%
